The source of these data is ChEMBL document CHEMBL2203256, “Design and evaluation of azaindole-substituted N-hydroxypyridones as glyoxalase I inhibitors” (Bioorg Med Chem Lett, 2012).

One series addresses Lactoylglutathione lyase (Homo sapiens, UniProt Q04760). Kind of series: Inhibition of human recombinant GLO1 expressed in Escherichia coli BL21 assessed as decrease in reduced glutathione level after 1 hr by Ellman's method. For orientation: Ellman's reagent forms a yellow product with free thiols.
Series [1] can be described thus: Half life in human serum at […]. Format: ADME, cell-free.
Series [2] relates to Liver microsomes. Briefly: Clearance in human liver microsomes assessed per mg of protein at 1 uM after 30 mins in absence of NADPH. Format: ADME, Microsome. To be noted: 0.5 h.
Series [3] relates to Liver. Briefly: Clearance in mouse liver microsomes assessed per mg of protein at 1 uM after 30 mins in absence of NADPH. Format: ADME, Microsome. To be noted: 0.5 h. A general note: Liver microsomes are vesicles of endoplasmic reticulum, rich in cytochrome P450 enzymes.
Series [4] has as its system Liver. Briefly: Clearance in mouse liver microsomes assessed per mg of protein at 1 uM after 30 mins in presence of NADPH. The series is classed as ADME, Microsome. Conditions: 0.5 h.
Series [5] in a line: Half life in mouse serum at […]. The series is classed as ADME, cell-free.
In series [6] the test system is Liver microsomes. Kind of series: Clearance in human liver microsomes assessed per mg of protein at 1 uM after 30 mins in presence of NADPH. The series is classed as ADME, Microsome. To be noted: 0.5 h.

Chain of Lactoylglutathione lyase (Q04760 whole entry): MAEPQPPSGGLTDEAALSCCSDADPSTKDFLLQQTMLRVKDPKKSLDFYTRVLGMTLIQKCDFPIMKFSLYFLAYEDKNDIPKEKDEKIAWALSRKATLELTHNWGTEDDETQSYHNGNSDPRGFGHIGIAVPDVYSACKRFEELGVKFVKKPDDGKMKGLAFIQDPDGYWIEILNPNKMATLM

Usually IC50 stands for the midpoint of a concentration-inhibition curve. Regarding `CCCCCn1ccc2cc(-c3cc(-c4ccccc4)cc(=O)n3O)cnc21`, the IC50 at Lactoylglutathione lyase turned out to be 0.51 µM.
Same read-out and setting: in the case of `NC(=O)c1cccc(Cn2ccc3cc(-c4cc(-c5ccccc5)cc(=O)n4O)cnc32)c1` it was 0.04 µM.
Still for that read-out and setting: the same measure for `CCCCc1cc(-c2ccccc2)n(O)c(=O)c1`: greater than 10 µM; for `O=c1cc(-c2ccsc2)cc(-c2ccccc2)n1O`: 1.52 µM; for `COCCCn1ccc2cc(-c3cc(-c4ccccc4)cc(=O)n3O)ccc21`: 0.3 µM.
For the compound `NC(=O)c1cccc(Cn2ccc3cc(-c4cc(-c5ccccc5)cc(=O)n4O)ccc32)c1`, the IC50 on Lactoylglutathione lyase came out at 0.48 µM.
One may read the half-life as the time needed for the level to fall by half in the phase considered. The low end stands for rapid decline, the high end for slow decline. Turning to `O=c1cc(-c2ccccc2)cc(-c2ccccc2)n1O`, the half-inhibitory concentration (IC50) on Lactoylglutathione lyase worked out at 1.19 µM. Further, the figures for the half-life in series [1] and in series [5] were 48.3 h and 7.33 h, respectively. Also, the CLint with Liver microsomes [2] came out at 6.6 µL/min/mg; in the series with Liver [3], 6.8 µL/min/mg; in the series on Liver [4], 28 µL/min/mg; in the series on Liver microsomes [6], 16 µL/min/mg.
On to `O=c1cc(-c2cccnc2)cc(-c2ccccc2)n1O`, for which the IC50 on Lactoylglutathione lyase stood at 8.28 µM.
Same read-out and setting: the same measure for `O=c1cc(-c2ccccc2)cc(-c2ccc3[nH]ccc3c2)n1O`: 0.25 µM; for `O=c1cc(-c2ccccc2)cc(-c2cnc3[nH]ccc3c2)n1O`: 0.28 µM; for `CCCCn1ccc2cc(-c3cc(-c4ccccc4)cc(=O)n3O)cnc21`: 0.3 µM.
For the compound `COCCn1ccc2cc(-c3cc(-c4ccccc4)cc(=O)n3O)ccc21`, the IC50 on Lactoylglutathione lyase is 0.26 µM.
On the same count and under the same terms, in the case of `O=c1cc(-c2ccc(-c3ccccc3)cc2)cc(-c2ccccc2)n1O` it was 8.4 µM; in that of `COCCn1ccc2cc(-c3cc(-c4ccccc4)cc(=O)n3O)cnc21`, 0.014 µM.
On to `O=c1cc(-c2ccc(C(F)(F)F)cc2)cc(-c2ccccc2)n1O`, for which the IC50 at Lactoylglutathione lyase amounted to 8.13 µM.
Take `CCC#Cc1cc(-c2ccccc2)n(O)c(=O)c1`: the IC50 on Lactoylglutathione lyase was greater than 10 µM.
